Test results from paper PMC2363476 (British Journal of Cancer, 2000).
Structures can show the parent of a compound that is named as a salt. Where two headings read alike, the source gives them in different places.

What was measured:
[1] = 1995, cited from earlier work
[2] = Plasma pharmacokinetics of irinotecan and SN-38 (reversed-phase HPLC); details: for SN-38/irinotecan AUC ratio / SN-38 Cmax / AUC / Cmax: cycle 1; for SN-38 Cmax: observed Cmax; for AUC / Cmax: human, plasma; for AUC: intravenous, Irinotecan AUC; for Cmax: iv, Irinotecan Cmax, estimated at the end of i.v. infusion
Method: Other radiological investi- gations were carried out if indicated. […] Pharmacokinetic analysis was performed using WinNonlin software. […] Patients were seen weekly while on treatment.

[3] = tested on: patients with advanced GI tract adenocarcinoma
Excerpt: The primary objectives of this study were to determine the maximum tolerated doses (MTD) of the two drugs given as short infusions every 3 weeks and to determine the toxic effects and DLT of the combination. Secondary objectives were to measure the pharmacokinetics of irinotecan, SN-38 and raltitrexed, to assess the anti-tumour effect of the combination and to recom- mend a safe dose for phase II evaluation. METHODS Definitions DLT was defined as any grade 3 or 4 non-haematological toxicity (except alopecia) following cycle 1; grade 4 neutropenia or grade 3-4 neutropenia associated with fever (> 38C) or sepsis; grade 4 thrombocytopenia or any grade of thrombocytopenia associated with haemorrhage. MTD was defined as the dose level at which 50% of patients experienced the same DLT. […] Exclusion criteria were: previous treatment with topoisomerase I inhibitor; chronic enteropathy; symptomatic cerebral metastasis or leptomeningeal carcinomatosis; unresolved bowel obstruction; pregnancy; previous malignant disease (except adequately treated carcinoma in situ of the cervix uteri or basal cell carcinoma of the skin). Pre-treatment evaluation Prior to entry, patients were evaluated with a physical examina- tion. An ECG, chest X-ray and CT scan of thorax abdomen and pelvis were carried out on all patients. Other radiological investi- gations were carried out if indicated. A full blood count, renal function tests, liver function tests and prothrombin time were also performed. […] A minimum of three patients were recruited to each dose level, and escalation to the next level was carried out when all three had been observed for a minimum of 2 weeks. The initial design was for the level below MTD to be expanded to six patients. […] Patients received six cycles of treatment subject to favourable response. Further cycles could be administered at the investigators' discre- tion if there was evidence of continuing clinical benefit. […] Pharmacokinetic analysis was performed using WinNonlin software. The calculation of kinetic parameters was performed using a 2- or 3-compartment open model for irinotecan, and a non-compartmental analysis for its metabolite SN-38 and raltitrexed. The following parameters were evaluated: maximum plasma concentration (Cmax ); area under the plasma concentration-time curve (AUC); total body clearance (Cl); volume of distribution at steady state (Vss ) and terminal half-life (t1/2 ). Evaluation and management of toxicity No prophylactic antidiarrhoeal treatment was given. […] Patients were seen weekly while on treatment. Toxicities were graded according to the NCI common toxicity criteria (NCI-CTC). […] Any patient experiencing concomitant vomiting was hospitalized to prevent dehydration. […] All patients with febrile neutropaenia were admitted to hospital and treated with intravenous antibiotics. […] In the case of myelosuppression lasting more than 5 weeks from the date of treatment, the patient was withrawn from the study.

[4] = Plasma pharmacokinetics of raltitrexed (radioimmunoassay); assay type: in vivo; details: human, intravenous
Method: […]. […] […]. […] 261 courses were administered. […] Two others had lethargy caused by disease progression. There was no first-cycle neutropenia. […] […]; 6/30 patients (20%) had objective responses. This combination is active with manageable toxicity. […] Other radiological investi- gations were carried out if indicated. […] […]. […] Pharmacokinetic analysis was performed using WinNonlin software. […] […]. Patients were seen weekly while on treatment. […] […]. […] All the other patients were evaluable for toxicity. […] Duration of neutropaenia ranged from 3-8 days. […] Grade 3 lethargy was therefore defined as a DLT. […] […]. […] They therefore continued treatment as scheduled. […] Dose delays were seen after 24/143 cycles (17%). […] Six patients required dose reduction.

[5] = 1998, cited from earlier work
[6] = dose level I (irinotecan 175, raltitrexed 2.6 mg m-2), n=3
[7] = dose level II (irinotecan 200, raltitrexed 2.6 mg m-2), n=3
[8] = dose level III (irinotecan 250, raltitrexed 2.6 mg m-2), n=3
[9] = dose level IV (irinotecan 300, raltitrexed 2.6 mg m-2), n=3
[10] = dose level V (irinotecan 350, raltitrexed 2.6 mg m-2), n=3
[11] = dose level VI (irinotecan 350, raltitrexed 3.0 mg m-2), n=6
[12] = dose level VII (irinotecan 400, raltitrexed 2.6 mg m-2), n=5
[13] = dose level I (irinotecan 175, raltitrexed 2.6 mg m-2), cycle 1, n=3
[14] = dose level II (irinotecan 200, raltitrexed 2.6 mg m-2), cycle 1, n=3
[15] = dose level III (irinotecan 250, raltitrexed 2.6 mg m-2), cycle 1, n=3
[16] = dose level IV (irinotecan 300, raltitrexed 2.6 mg m-2), cycle 1, n=3
[17] = dose level V (irinotecan 350, raltitrexed 2.6 mg m-2), cycle 1, n=3
[18] = dose level VI (irinotecan 350, raltitrexed 3.0 mg m-2), cycle 1, n=6
[19] = dose level VII (irinotecan 400, raltitrexed 2.6 mg m-2), cycle 1, n=6
[20] = 3.0 mg m-2, 14C labelled raltitrexed, single agent, ref Beale et al

In the case of CCc1c2c(nc3ccc(O)cc13)-c1cc3c(c(=O)n1C2)COC(=O)[C@]3(O)CC [SN-38], the “SN-38 t1/2” value ([1]; 168 phase I cancer patients treated with irinotecan alone, ref Chabot et al) is listed as 0.442 days, the “SN-38/irinotecan AUC ratio, overall mean value” ([1]; irinotecan monotherapy, ref Abigerges et al) is listed as 3.1% and the “SN-38 time of maximal concentrations following the end of i.v. infusion” value ([2]; all dose levels) is listed as at most 60 min. The “SN-38/irinotecan AUC ratio” value [2, 6] was 2.1%, the “SN-38 Cmax” value [2, 6] was 48000 µg/mL and the “SN-38/irinotecan AUC ratio” value [2, 7] was 3.2%. The “SN-38 Cmax” value [2, 7] was 74000 µg/mL, the “SN-38/irinotecan AUC ratio” value [2, 8] was 2.3% and the “SN-38 Cmax” value [2, 8] was 60000 µg/mL. For the same molecule, the “SN-38/irinotecan AUC ratio” value [2, 9] was 2.1%, the “SN-38 Cmax” value [2, 9] was 71000 µg/mL and the “SN-38/irinotecan AUC ratio” value [2, 10] was 2.9%. The “SN-38 Cmax” value [2, 10] was 57000 µg/mL, the “SN-38/irinotecan AUC ratio” value [2, 11] was 2.1% and the “SN-38 Cmax” value [2, 11] was 100000 µg/mL. For the same molecule, the “SN-38/irinotecan AUC ratio” value [2, 12] was 2.7%, the “SN-38 Cmax” value [2, 12] was 117000 µg/mL and the “SN-38 apparent terminal half-life, mean value” ([2]; over the administered dose range) was 0.462 days. For the same molecule, the “SN-38/irinotecan AUC ratio, overall mean value” ([2]; over the tested dose range) was 2.4%.
Molecule CCc1c2c(nc3ccc(OC(=O)N4CCC(N5CCCCC5)CC4)cc13)-c1cc3c(c(=O)n1C2)COC(=O)[C@]3(O)CC [irinotecan, Irinotecan hydrochloride] has an AUC [2, 6] of 13100 ng·h/mL, an AUC [2, 7] of 16000 ng·h/mL and an AUC [2, 8] of 14600 ng·h/mL. For the same molecule, the AUC [2, 9] was 22600 ng·h/mL, the AUC [2, 10] was 26600 ng·h/mL and the AUC [2, 11] was 29000 ng·h/mL. It also gave an AUC [2, 12] of 27000 ng·h/mL, a Cmax [2, 6] of 3.53 µg/mL and a Cmax [2, 7] of 4.7 µg/mL. The Cmax [2, 8] was 5.92 µg/mL, the Cmax [2, 9] was 5.98 µg/mL and the Cmax [2, 10] was 4.89 µg/mL. The Cmax [2, 11] was 5.43 µg/mL, the Cmax [2, 12] was 5.41 µg/mL and the “MTD, irinotecan dose” value ([3]; with raltitrexed 2.6 mg m-2, 3-weekly (level VII)) was 400 mg m-2. For the same molecule, the “recommended dose for phase II evaluation, irinotecan” value ([3]; with raltitrexed 3.0 mg m-2 every 3 weeks (level VI)) was 350 mg m-2.
With Cc1nc2ccc(CN(C)c3ccc(C(=O)N[C@@H](CCC(=O)O)C(=O)O)s3)cc2c(=O)[nH]1 [raltitrexed] the AUC [4, 13] was 1710 ng·h/mL, the Cmax [4, 13] was 0.561 µg/mL and the clearance ([4]; dose level I (irinotecan 175, raltitrexed 2.6 mg m-2), cycle 1, n=3, read-out: Raltitrexed Cl (converted)) was 50.2 mL/min. The Vd ([4]; dose level I (irinotecan 175, raltitrexed 2.6 mg m-2), cycle 1, n=3, read-out: Raltitrexed Vss) was 40.7 L, the half-life ([4]; dose level I (irinotecan 175, raltitrexed 2.6 mg m-2), cycle 1, n=3, read-out: Raltitrexed t1/2 terminal (converted)) was 9.25 days and the AUC [4, 14] was 1440 ng·h/mL. It also gave a Cmax [4, 14] of 0.42 µg/mL, a clearance ([4]; dose level II (irinotecan 200, raltitrexed 2.6 mg m-2), cycle 1, n=3, read-out: Raltitrexed Cl (converted)) of 78.3 mL/min and a Vd ([4]; dose level II (irinotecan 200, raltitrexed 2.6 mg m-2), cycle 1, n=3, read-out: Raltitrexed Vss) of 27.3 L. It also gave a half-life ([4]; dose level II (irinotecan 200, raltitrexed 2.6 mg m-2), cycle 1, n=3, read-out: Raltitrexed t1/2 terminal (converted)) of 7.92 days, an AUC [4, 15] of 1460 ng·h/mL and a Cmax [4, 15] of 0.291 µg/mL. It also gave a clearance ([4]; dose level III (irinotecan 250, raltitrexed 2.6 mg m-2), cycle 1, n=3, read-out: Raltitrexed Cl (converted)) of 56 mL/min, a Vd ([4]; dose level III (irinotecan 250, raltitrexed 2.6 mg m-2), cycle 1, n=3, read-out: Raltitrexed Vss) of 60.2 L and a half-life ([4]; dose level III (irinotecan 250, raltitrexed 2.6 mg m-2), cycle 1, n=3, read-out: Raltitrexed t1/2 terminal (converted)) of 14.4 days. The AUC [4, 16] was 1810 ng·h/mL, the Cmax [4, 16] was 0.676 µg/mL and the clearance ([4]; dose level IV (irinotecan 300, raltitrexed 2.6 mg m-2), cycle 1, n=3, read-out: Raltitrexed Cl (converted)) was 47.2 mL/min. The Vd ([4]; dose level IV (irinotecan 300, raltitrexed 2.6 mg m-2), cycle 1, n=3, read-out: Raltitrexed Vss) was 32.3 L, the half-life ([4]; dose level IV (irinotecan 300, raltitrexed 2.6 mg m-2), cycle 1, n=3, read-out: Raltitrexed t1/2 terminal (converted)) was 14.5 days and the AUC [4, 17] was 2520 ng·h/mL. For the same molecule, the Cmax [4, 17] was 0.736 µg/mL, the clearance ([4]; dose level V (irinotecan 350, raltitrexed 2.6 mg m-2), cycle 1, n=3, read-out: Raltitrexed Cl (converted)) was 41.7 mL/min and the Vd ([4]; dose level V (irinotecan 350, raltitrexed 2.6 mg m-2), cycle 1, n=3, read-out: Raltitrexed Vss) was 30.2 L. The half-life ([4]; dose level V (irinotecan 350, raltitrexed 2.6 mg m-2), cycle 1, n=3, read-out: Raltitrexed t1/2 terminal (converted)) was 16.8 days, the AUC [4, 18] was 2480 ng·h/mL and the Cmax [4, 18] was 0.772 µg/mL. The clearance ([4]; dose level VI (irinotecan 350, raltitrexed 3.0 mg m-2), cycle 1, n=6, read-out: Raltitrexed Cl (converted)) was 40.2 mL/min, the Vd ([4]; dose level VI (irinotecan 350, raltitrexed 3.0 mg m-2), cycle 1, n=6, read-out: Raltitrexed Vss) was 25.8 L and the half-life ([4]; dose level VI (irinotecan 350, raltitrexed 3.0 mg m-2), cycle 1, n=6, read-out: Raltitrexed t1/2 terminal (converted)) was 12.3 days. The AUC [4, 19] was 1500 ng·h/mL, the Cmax [4, 19] was 0.574 µg/mL and the clearance ([4]; dose level VII (irinotecan 400, raltitrexed 2.6 mg m-2), cycle 1, n=6, read-out: Raltitrexed Cl (converted)) was 55.7 mL/min. For the same molecule, the Vd ([4]; dose level VII (irinotecan 400, raltitrexed 2.6 mg m-2), cycle 1, n=6, read-out: Raltitrexed Vss) was 43.8 L, the half-life ([4]; dose level VII (irinotecan 400, raltitrexed 2.6 mg m-2), cycle 1, n=6, read-out: Raltitrexed t1/2 terminal (converted)) was 10.9 days and the clearance ([4]; over all dose ranges, 27 patients, read-out: raltitrexed Cl (converted)) was 51.7 mL/min. For the same molecule, the half-life ([4]; over all dose ranges, 27 patients, read-out: raltitrexed t1/2 (converted)) was 12.1 days, the “raltitrexed AUC” value [5, 20] was 2342 ng/h/mL and the “raltitrexed Cmax” value [5, 20] was 0.737 µg/mL. For the same molecule, the raltitrexed clearance [5, 20] was 2.48 L/h, the “change of raltitrexed AUC in renal impairment” value ([5]; patients with measured creatinine clearance less than 65 ml min-1, ref Judson et al) was “approximately doubled” and the “patients with lower limb cellulitis secondary to raltitrexed” value ([3]; combination treatment) was “One”. For the same molecule, the “recommended dose for phase II evaluation, raltitrexed” value ([3]; with irinotecan 350 mg m-2 every 3 weeks (level VI)) was 3.0 mg m-2 and the “MTD, raltitrexed dose” value ([3]; with irinotecan 400 mg m-2, 3-weekly (level VII)) was 2.6 mg m-2.
